This is an account of results in patent US8618169B2, “Derivatives of N-phenylanthranilic acid and 2-benzimidazolone as potassium channel and/or neuron activity modulators” (Ramot at Tel-Aviv University Ltd., priority 2002, dated 2013).

Common to all, as to type: cell-based
Assay [1] has as its system hippocampal pyramidal neurons. The assay can be described thus: Spontaneous EPSCs of hippocampal pyramidal neuron cultures, voltage-clamp. The method, then: To further determine the synaptic site of M-channel activation by Compound 6, its effects on spontaneous excitatory postsynaptic currents (EPSCs) that could be recorded from dense networks of hippocampal pyramidal neuron cultures was tested.
In FIGS. 30B and 30C, burst activity before (control), in the presence (Compound 6) and after (Wash) application of 5 μM (FIG. 30B) and 10 μM (FIG. 30C) Compound 6, as recorded at the voltage clamp mode is shown. In FIG. 30D, burst activity before (control) and in the presence of 25 μM Linopirdine is shown. In FIG. 30E, the normalized number of bursts appeared in 180 seconds time period for 5 μM (left panel), 10 μM (mid panel) of Compound 6 and 25 μM linopirdine (right panel) are shown. The holding potential was −70 mV. n=5-6.
Thus, using the voltage-clamp configuration of the patch-clamp technique, spontaneous EPSCs were isolated at −70 mV (holding potential) in the presence of 10 μM bicuculline and 10 μM picrotoxin to block GABAA receptor-mediated inhibitory postsynaptic currents. As is shown in FIG. 30A, under control conditions, the frequency of EPSCs is variable depending of the density of the hippocampal culture, ranging from 0.4 Hz to 2 Hz. […] However, the majority of the EPSCs measured at −70 mV under the experimental recording conditions are mediated by AMPA receptors as most of the currents are blocked by 10 μM NBQX, leaving only a small fraction EPSC sensitive to the NMDA receptor blocker DL-AP5 (FIG. 30A).

The test system of assay [2] is CA1 pyramidal neurons. The assay can be described thus: Bursting and spike ADP of CA1 pyramidal neurons in rat hippocampal slices, current-clamp. The method, then: Using selective blockers and openers, it was recently shown that M-channels critically modulate the firing pattern of pyramidal hippocampal neurons by controlling the strength, duration and escalation into bursts of spike after depolarization (Yue and Yaari J. Neurosci., 24(19):4614-24, 2004).
To evaluate the effect of Compound 6 on the spike ADP, a brief depolarizing current pulse was injected to the neurons to elicit a solitary spike.

Assay [3] deals with F-11 neuronal cells. Description: Spiking activity and membrane potential of F-11 neuronal cells, current-clamp. As to conditions: 10 μM. The method, then:
F-11 neuronal cells were similarly cultured in F-12 Ham media containing 2 mM 1-glutamine supplemented with 10% fetal bovine serum, HAT supplement and antibiotics.
For current measurements in CHO cells, recordings were performed 40 hours following transfection, using the whole-cell configuration of the patch-clamp technique [Hamill et al., Nature 294: 462-464 (1981)]. Signals were amplified using an Axopatch 200B patch-clamp amplifier (Axon Instruments, Foster City, Calif., USA), sampled at 2 kHz and filtered at 800 Hz via a 4-pole Bessel low pass filter. Data were acquired using pClamp 8.1 software (Axon Instruments, Foster City, Calif., USA) and an Elonex Pentium III computer in conjunction with a DigiData 1322A interface (Axon Instruments, Foster City, Calif., USA). The patch pipettes were pulled from borosilicate glass (Warner Instrument. Corp., Hamden, Conn., USA) with a resistance of 2-5 MΩ and were filled with (in mM): 130 KCl, 1 MgCl2, 5 K2ATP, 5 EGTA, 10 HEPES, adjusted with KOH at pH 7.4 (290 mOsm). The external solution contained (in [mM]): 140 NaCl, 4 KCl, 1.8 CaCl2, 1.2 MgCl2, 11 glucose, 5.5 HEPES, adjusted with NaOH at pH 7.4 (310 mOsm). Series resistances (3-13 MΩ) were compensated (75-90%) and periodically monitored. For current-clamp measurements of rat cortical neurons, recordings were performed 10-14 days after plating, while rat DRG neurons recordings were performed 3 days after plating. The patch pipettes were filled with (in [mM]): 135 KCl, 1 K2ATP, 1 MgATP, 2 EGTA, 1.1 CaCl2, 5 glucose, 10 HEPES, adjusted with KOH at pH 7.4 (315 mOsm). The external solution contained (in [mM]): 140 NaCl, 4 KCl, 2 CaCl2, 2 MgCl2, 5 glucose, 10 HEPES, adjusted with NaOH at pH 7.4 (325 mOsm). For evoking the neuronal action potentials, 50-300 pA currents were injected into the cells for 800 ms (square pulse). Recordings were sampled at 5 kHz and filtered at 2 KHz via a 4-pole Bessel low pass filter. […]

The target of assay [4] is T1, homomeric KCNQ3 (Homo sapiens, UniProt O43525).
T1 construct: expressed in transfected cells; host or cells: CHO cells
Description: Homomeric KCNQ3 channels expressed in CHO cells, patch-clamp. As to conditions: 50 μM.

Assay [5] concerns the target T2, KCNQ1/KCNE1 (Homo sapiens, UniProt P51787).
T2 construct: expressed in transfected cells; host or cells: Xenopus oocytes (stated for Compound 6)
The assay can be described thus: KCNQ1/KCNE1 (IKS) current amplitude. The settings on record: 50 μM, test potentials −50 to 0 mV, data not shown. The method, then: Briefly, two-electrode voltage-clamp measurements were performed 3-5 days following cRNA microinjection into oocytes. Oocytes were bathed in a modified ND96 solution containing (in mM): 96 NaCl, 2 KCl, 1 MgCl2, 0.1 CaCl2 and 5 HEPES titrated to pH=7.4 with NaOH. Whole-cell currents were recorded at room temperature (20° C.-22° C.) using a GeneClamp 500 amplifier (Axon Instruments, Foster City, Calif., USA). […] Current signals were filtered at 0.5 kHz and digitized at 2 kHz.
The current amplitude of the various channels was measured from a −80 mV holding potential.

The target in assay [6] is KCNQ2/Q3 (Homo sapiens, UniProt O43525+O43526). The assay can be described thus: Opener potency on KCNQ2/Q3 by leftward shift of half-activation potential (ΔV50) versus concentration, Hill fit. Set-up: expressed in transfected cells. As to conditions: compound alone.

Molecules are shown by their SMILES.

Take `O=C(Cc1ccccc1Nc1c(Cl)cccc1Cl)NCCOCCO` [Compound 6]: the “frequency of spontaneous EPSCs” value in assay [1] (5 μM, −70 mV holding potential) is listed as “up to 49±5 % of control”. Also, the “occurrence of spontaneous EPSCs” value in assay [1] (≧10 μM) was “totally suppresses”. Moreover, in assay [2] (25 μM, long suprathreshold depolarizing current pulses), the “effect on burst spiking” value is given as “suppression of the burst”. Besides, the “ADP size with compound” value in assay [2] (solitary spike, control 193.8±49.7 mV msec) is on record as 117.1±40.6 mV msec. In addition, in assay [3], the “effect on spikes generated in F-11 cells” value is “completely and reversibly blocks”; the “hyperpolarization of the membrane potential” value was 9±3 mV. Moreover, the “membrane potential of the F-11 neuronal cell with compound” value in assay [3] (FIG. 26, from −59 mV) is reported as −67 mV.

As to `Cc1ccc(Cl)c(Nc2ccccc2C(=O)O)c1Cl` [Compound 1, Meclofenamic acid], the “leftward shift of the activation curve of KCNQ3 channels” value in assay [4] (CHO cells) is reported as −15 mV. Moreover, the “increase of KCNQ3 current amplitude” value in assay [4] (stepped from −85 mV to −40 mV) is given as 120±4%. Moreover, the “τdeact of KCNQ3 with compound” value in assay [4] (control 319.6±40.8 msec) was found to be 317.2 ± 30.2 ms. The “V50 of KCNQ3 activation with compound” value in assay [4] (control −39.0±3.5 mV) is recorded as −54.0±2.0 mV. For the same compound, in assay [5], the “effect on heteromeric KCNQ1/KCNE1 currents” value is given as “not enhanced”. The “Hill coefficient ηH” value in assay [6] (Hill fit) came to 2.1±0.5. In assay [6] (Hill fit, read-out: EC50 of leftward shift of the half-activation potential (ΔV50)), the EC50 stood at 25.7 ± 1.1 µM. Besides, the “maximal left-shift of the half-activation potential (ΔV50)” value in assay [6] is −20±3 mV.
